Reference: paper PMC9226124, “Macrocycle-stabilization of its interaction with 14-3-3 increases plasma membrane localization and activity of CFTR” (Nature Communications, 2022)
Several values for one entry are separate records, joined by “and”; a condition that tells them apart may be missing. Identical values can stand only once.

Assays:
[1] = target: T1, 14-3-3β/CFTRpS753pS768 complex (Homo sapiens, UniProt P13569+P31946); assay: FP assay, 14-3-3β titration at constant compound concentration (apparent KD); assay type: binding; conditions: for FP signal, 14-3-3β titration: replicates
T1 construct: His6 (cleaved yes); made in house; peptide synthetic
T1 sequence (P31946 whole entry): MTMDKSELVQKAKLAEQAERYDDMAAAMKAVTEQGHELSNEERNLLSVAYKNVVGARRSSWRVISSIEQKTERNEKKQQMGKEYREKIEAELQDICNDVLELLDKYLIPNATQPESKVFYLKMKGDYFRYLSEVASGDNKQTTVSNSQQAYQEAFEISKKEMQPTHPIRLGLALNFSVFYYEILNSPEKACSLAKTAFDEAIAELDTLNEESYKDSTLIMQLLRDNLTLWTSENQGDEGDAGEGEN
T1 sequence (P13569 747-774 limits assumed): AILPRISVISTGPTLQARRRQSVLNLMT

[2] = target: T2, FITC-labeled CFTRpS753pS768 peptide (no 14-3-3) (Homo sapiens, UniProt P13569); assay: Dose-response FP control assay in the absence of 14-3-3; assay type: binding; conditions: No 14-3-3
T2 construct: made in house; host or cells: synthetic peptide
Outline: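 Control run without 14-3-3: FITC-CFTR pS753/pS768 peptide (100 nM or 10 nM) with compound titrated in twofold dilutions in 10 mM HEPES pH 7.4, 150 mM NaCl, 0.1% Tween20, 1 mg/mL BSA. Fluorescence polarization read at ex 485/em 535 nm, background subtracted, n = 3. Curves fitted by four-parameter log(agonist) vs. response.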

[3] = 14-3-3β 7.62939e-9 M, FC-A + CY compound
[4] = 14-3-3β 7.62939e-9 M, compound 100 μM
[5] = 14-3-3β 1.52588e-8 M, FC-A + CY compound
[6] = 14-3-3β 1.52588e-8 M, compound 100 μM
[7] = 14-3-3β 3.05176e-8 M, FC-A + CY compound
[8] = 14-3-3β 3.05176e-8 M, compound 100 μM
[9] = 14-3-3β 6.10352e-8 M, FC-A + CY compound
[10] = 14-3-3β 6.10352e-8 M, compound 100 μM
[11] = 14-3-3β 1.2207e-7 M, FC-A + CY compound
[12] = 14-3-3β 1.2207e-7 M, compound 100 μM
[13] = 14-3-3β 2.44141e-7 M, FC-A + CY compound
[14] = 14-3-3β 2.44141e-7 M, compound 100 μM
[15] = 14-3-3β 4.88281e-7 M, FC-A + CY compound
[16] = 14-3-3β 4.88281e-7 M, compound 100 μM
[17] = 14-3-3β 9.76563e-7 M, FC-A + CY compound
[18] = 14-3-3β 9.76563e-7 M, compound 100 μM
[19] = 14-3-3β 1.95313e-6 M, FC-A + CY compound
[20] = 14-3-3β 1.95313e-6 M, compound 100 μM
[21] = 14-3-3β 3.90625e-6 M, FC-A + CY compound
[22] = 14-3-3β 3.90625e-6 M, compound 100 μM
[23] = 14-3-3β 7.8125e-6 M, FC-A + CY compound
[24] = 14-3-3β 7.8125e-6 M, compound 100 μM
[25] = 14-3-3β 1.5625e-5 M, FC-A + CY compound
[26] = 14-3-3β 1.5625e-5 M, compound 100 μM
[27] = 14-3-3β 3.125e-5 M, FC-A + CY compound
[28] = 14-3-3β 3.125e-5 M, compound 100 μM
[29] = 14-3-3β 6.25e-5 M, FC-A + CY compound
[30] = 14-3-3β 6.25e-5 M, compound 100 μM
[31] = 14-3-3β 0.000125 M, FC-A + CY compound
[32] = 14-3-3β 0.000125 M, compound 100 μM

## N=C(N)NCCCC1NC(=O)C(CCC(N)=O)NC(=O)C(CCCNC(=N)N)NC(=O)C2Cc3ccccc3CN2Cc2cccc(c2)-c2ccccc2CNC1=O (centres unmarked) [CY007493]
[1]; 14-3-3β 1.90735e-9 M, FC-A + CY compound
  FP signal, 14-3-3β titration: 2 and 4 and 0
[1]; 14-3-3β 1.90735e-9 M, compound 100 μM
  FP signal, 14-3-3β titration: -2
[1]; 14-3-3β 3.8147e-9 M, FC-A + CY compound
  FP signal, 14-3-3β titration: 2 and 1 and -1
[1]; 14-3-3β 3.8147e-9 M, compound 100 μM
  FP signal, 14-3-3β titration: 2 and 3 and 1
[1]; [3]
  FP signal, 14-3-3β titration: 2 and 1 and 0
[1]; [4]
  FP signal, 14-3-3β titration: 1 (2×) and 4
[1]; [5]
  FP signal, 14-3-3β titration: 7 and 4 and 6
[1]; [6]
  FP signal, 14-3-3β titration: 5 (2×) and 3
[1]; [7]
  FP signal, 14-3-3β titration: 3 and 4 and 5
[1]; [8]
  FP signal, 14-3-3β titration: 3 and 1 (2×)
[1]; [9]
  FP signal, 14-3-3β titration: 6 and 9 (2×)
[1]; [10]
  FP signal, 14-3-3β titration: 5 and 2 (2×)
[1]; [11]
  FP signal, 14-3-3β titration: 10 and 5 and 8
[1]; [12]
  FP signal, 14-3-3β titration: 3 and 6 and 2
[1]; [13]
  FP signal, 14-3-3β titration: 16 and 15 and 11
[1]; [14]
  FP signal, 14-3-3β titration: 7 and 3 and 1
[1]; [15]
  FP signal, 14-3-3β titration: 18 and 25 and 20
[1]; [16]
  FP signal, 14-3-3β titration: 9 and 4 (2×)
[1]; [17]
  FP signal, 14-3-3β titration: 36 and 40 and 38
[1]; [18]
  FP signal, 14-3-3β titration: 9 and 11 and 10
[1]; [19]
  FP signal, 14-3-3β titration: 52 and 57 and 55
[1]; [20]
  FP signal, 14-3-3β titration: 11 (2×) and 13
[1]; [21]
  FP signal, 14-3-3β titration: 75 and 77 and 73
[1]; [22]
  FP signal, 14-3-3β titration: 25 and 27 and 24
[1]; [23]
  FP signal, 14-3-3β titration: 105 (2×) and 102
[1]; [24]
  FP signal, 14-3-3β titration: 44 and 43 and 34
[1]; [25]
  FP signal, 14-3-3β titration: 123 and 125 and 121
[1]; [26]
  FP signal, 14-3-3β titration: 59 and 58 and 51
[1]; [27]
  FP signal, 14-3-3β titration: 141 (2×) and 139
[1]; [28]
  FP signal, 14-3-3β titration: 76 (2×) and 79
[1]; [29]
  FP signal, 14-3-3β titration: 152 and 151 and 156
[1]; [30]
  FP signal, 14-3-3β titration: 97 (2×) and 95
[1]; [31]
  FP signal, 14-3-3β titration: 161 and 159 and 162
[1]; [32]
  FP signal, 14-3-3β titration: 113 and 114 and 116
[1]; CY compound (100 μM), 14-3-3β concentration 0.00025 M
  Fluorescence polarization signal, 14-3-3β titration: 132 and 131 and 127
[1]; CY compound (100 μM), 14-3-3β concentration 0.0005 M
  Fluorescence polarization signal, 14-3-3β titration: 146 and 152
[1]; FC-A + CY compound, 14-3-3β concentration 0.00025 M
  Fluorescence polarization signal, 14-3-3β titration: 166 and 162
[1]; FC-A + CY compound, 14-3-3β concentration 0.0005 M
  Fluorescence polarization signal, 14-3-3β titration: 175 and 173 and 177
[2]; compound 324.2 pM
  FP signal: 2
[2]; compound 648.5 pM
  FP signal: 1
[2]; compound 1.297e-9 M
  FP signal: 2
[2]; compound 2.59399e-9 M
  FP signal: 3
[2]; compound 5.18799e-9 M
  FP signal: 3
[2]; compound 1.0376e-8 M
  FP signal: 3
[2]; compound 2.0752e-8 M
  FP signal: 3
[2]; compound 4.15039e-8 M
  FP signal: 3
[2]; compound 8.30078e-8 M
  FP signal: 2
[2]; compound 1.66016e-7 M
  FP signal: 5
[2]; compound 3.32031e-7 M
  FP signal: 4
[2]; compound 6.64062e-7 M
  FP signal: 3
[2]; compound 1.32813e-6 M
  FP signal: 4
[2]; compound 2.65625e-6 M
  FP signal: 5
[2]; compound 5.3125e-6 M
  FP signal: 6
[2]; compound 1.0625e-5 M
  FP signal: 4
[2]; compound 2.125e-5 M
  FP signal: 10
[2]; compound 4.25e-5 M
  FP signal: 18
[2]; compound 8.5e-5 M
  FP signal: 37
[2]; compound 0.00034 M
  FP signal: 117
[2]; compound 0.00068 M
  FP signal: 184
[2]; compound […]
  FP signal: 71

## N=C(N)NCCCC1NC(=O)C(CCC(N)=O)NC(=O)C(CCCNC(=N)N)NC(=O)C2CCCN2Cc2ccccc2Sc2ccccc2CNC1=O (centres unmarked) [CY007502]
[1]; [3]
  FP signal, 14-3-3β titration: 7 and 2 and -1
[1]; [4]
  FP signal, 14-3-3β titration: 6 and 5
[1]; [5]
  FP signal, 14-3-3β titration: 5 (2×) and 6
[1]; [6]
  FP signal, 14-3-3β titration: 0 and 3 and 4
[1]; [7]
  FP signal, 14-3-3β titration: 12 and 13 and 8
[1]; [8]
  FP signal, 14-3-3β titration: 4 and 5 and 3
[1]; [9]
  FP signal, 14-3-3β titration: 19 and 17 (2×)
[1]; [10]
  FP signal, 14-3-3β titration: 3 (2×) and 5
[1]; [11]
  FP signal, 14-3-3β titration: 30 and 33 and 27
[1]; [12]
  FP signal, 14-3-3β titration: 6 and 5 and 8
[1]; [13]
  FP signal, 14-3-3β titration: 51 and 57 and 45
[1]; [14]
  FP signal, 14-3-3β titration: 8 (2×) and 7
[1]; [15]
  FP signal, 14-3-3β titration: 76 and 79 and 69
[1]; [16]
  FP signal, 14-3-3β titration: 10 and 8 and 12
[1]; [17]
  FP signal, 14-3-3β titration: 99 and 95 and 89
[1]; [18]
  FP signal, 14-3-3β titration: 16 and 15 and 18
[1]; [19]
  FP signal, 14-3-3β titration: 108 (2×) and 110
[1]; [20]
  FP signal, 14-3-3β titration: 24 (2×) and 28
[1]; [21]
  FP signal, 14-3-3β titration: 119 (2×) and 117
[1]; [22]
  FP signal, 14-3-3β titration: 31 and 32 and 33
[1]; [23]
  FP signal, 14-3-3β titration: 126 and 127 and 121
[1]; [24]
  FP signal, 14-3-3β titration: 35 and 40 and 41
[1]; [25]
  FP signal, 14-3-3β titration: 132 and 128 and 129
[1]; [26]
  FP signal, 14-3-3β titration: 49 and 50 and 52
[1]; [27]
  FP signal, 14-3-3β titration: 138 and 136 and 135
[1]; [28]
  FP signal, 14-3-3β titration: 64 and 62 and 65
[1]; [29]
  FP signal, 14-3-3β titration: 143 and 145
[1]; [30]
  FP signal, 14-3-3β titration: 87 and 83 and 85
[1]; [31]
  FP signal, 14-3-3β titration: 156 and 151 and 152
[1]; [32]
  FP signal, 14-3-3β titration: 104 and 106 and 103
[1]; 14-3-3β 0.00025 M, FC-A + CY compound
  FP signal, 14-3-3β titration: 165 and 159 and 157
[1]; 14-3-3β 0.00025 M, compound 100 μM
  FP signal, 14-3-3β titration: 119 (2×) and 122
[1]; 14-3-3β 0.0005 M, FC-A + CY compound
  FP signal, 14-3-3β titration: 177 and 175 and 169
[1]; 14-3-3β 0.0005 M, compound 100 μM
  FP signal, 14-3-3β titration: 151 and 144 and 146
[2]; compound 453 pM
  FP signal: 1
[2]; compound 906 pM
  FP signal: 2
[2]; compound 1.81198e-9 M
  FP signal: 2
[2]; compound 3.62396e-9 M
  FP signal: 3
[2]; compound 7.24792e-9 M
  FP signal: 3
[2]; compound 1.44958e-8 M
  FP signal: 1
[2]; compound 2.89917e-8 M
  FP signal: 3
[2]; compound 5.79834e-8 M
  FP signal: 4
[2]; compound 1.15967e-7 M
  FP signal: 3
[2]; compound 2.31934e-7 M
  FP signal: 4
[2]; compound 4.63867e-7 M
  FP signal: 6
[2]; compound 9.27734e-7 M
  FP signal: 3
[2]; compound 1.85547e-6 M
  FP signal: 3
[2]; compound 3.71094e-6 M
  FP signal: 4
[2]; compound 7.42187e-6 M
  FP signal: 6
[2]; compound 1.48437e-5 M
  FP signal: 6
[2]; compound 2.96875e-5 M
  FP signal: 6
[2]; compound 5.9375e-5 M
  FP signal: 26
[2]; compound 0.00011875 M
  FP signal: 67
[2]; compound 0.0002375 M
  FP signal: 127
[2]; compound 0.000475 M
  FP signal: 188
[2]; compound 0.00095 M
  FP signal: 241
